# Measurements taken from patent US11261177B2, “Benzoxazinone derivatives useful as herbicides” (REDAG CROP PROTECTION LTD, priority 2017, dated 2022).
# Tests used:
# Assay type in all cases: in vivo
# [1] = test system: Stellaria media—Chickweed; test: Post-emergence herbicidal assay, 96 cell trays, glasshouse; conditions: 168 h, assessed 7 days after treatment, read-out: % control of plant growth; for pest or weed control at 200 g/ha: 0.2 kg/ha; for pest or weed control at 1000 g/ha: 1 kg/ha; for pest or weed control at 5000 g/ha: 5 kg/ha
# Description: (§1) The compounds were screened at three concentrations (0.2, 1 and 5 kg/ha) against 2 weed species (Stellaria media—Chickweed and Lolium perenne). The seeds were sown in the cells of 96 cell trays (4-6 seeds per cell). For the pre-emergence assay, 75 μL of a suspension of the test compound, at the above doses, was added on top of the soil 1 day after sowing. For the post-emergence assay, the seedlings were sprayed with 200 μL of a suspension of the test compound two weeks after sowing. The formulation used is 25% acetone and 75% water/0.01% Tween 20. Each treatment was replicated three times. The plants were kept in a glasshouse (uncontrolled conditions) and assessed 7 days after treatment. A small number of compounds were tested in a first trial. A larger number of compounds were tested in a second trial. The assessment was based on the % control of plant growth in each cell.
# Lolium perenne [2] = test: as above; conditions: 168 h, Lollium, assessed 7 days after treatment, read-out: % control of plant growth; for pest or weed control at 200 g/ha: 0.2 kg/ha; for pest or weed control at 1000 g/ha: 1 kg/ha; for pest or weed control at 5000 g/ha: 5 kg/ha
# Description: as §1
# [3] = test system: 2 weed species (Stellaria media—Chickweed and Lolium perenne); test: Herbicidal activity screen, summary in words over both weed species; conditions: pre- and post-emergence, 0.2, 1 and 5 kg/ha
# Description: as §1
# [4] = test system: Stellaria media—Chickweed; test: Pre-emergence herbicidal assay, 96 cell trays, glasshouse; conditions: 168 h, assessed 7 days after treatment, read-out: % control of plant growth; for pest or weed control at 200 g/ha: 0.2 kg/ha; for pest or weed control at 1000 g/ha: 1 kg/ha; for pest or weed control at 5000 g/ha: 5 kg/ha
# Description: as §1
# Lolium perenne [5] = test: as above; conditions: 168 h, Lollium, assessed 7 days after treatment, read-out: % control of plant growth; for pest or weed control at 200 g/ha: 0.2 kg/ha; for pest or weed control at 1000 g/ha: 1 kg/ha; for pest or weed control at 5000 g/ha: 5 kg/ha
# Description: as §1
Compound,pest or weed control at 200 g/ha ([1]; second trial (Table 2)) [%],pest or weed control at 1000 g/ha ([1]; second trial (Table 2)) [%],pest or weed control at 5000 g/ha ([1]; second trial (Table 2)) [%],pest or weed control at 200 g/ha (Lolium perenne [2]; second trial (Table 2)) [%],pest or weed control at 1000 g/ha (Lolium perenne [2]; second trial (Table 2)) [%],pest or weed control at 5000 g/ha (Lolium perenne [2]; second trial (Table 2)) [%],herbicidal activity [3],pest or weed control at 200 g/ha ([4]; second trial (Table 2)) [%],pest or weed control at 1000 g/ha ([4]; second trial (Table 2)) [%],pest or weed control at 5000 g/ha ([4]; second trial (Table 2)) [%],pest or weed control at 200 g/ha (Lolium perenne [5]; second trial (Table 2)) [%],pest or weed control at 1000 g/ha (Lolium perenne [5]; second trial (Table 2)) [%],pest or weed control at 5000 g/ha (Lolium perenne [5]; second trial (Table 2)) [%],other results
"C#CCN1C(=O)C2(CC2)Oc2cc(F)c(-n3ncc(C(F)(F)F)c(C)c3=O)cc21 [Example 4, 7-Fluoro-6-(5-methyl-6-oxo-4-(trifluoromethyl)pyridazin-1(6H)-yl)-4-(prop-2-yn-1-yl)spiro[benzo[b][1,4]oxazine-2,1′-cyclopropan]-3(4H)-one]",80 to 100,80 to 100,80 to 100,80 to 100,80 to 100,80 to 100,excellent herbicidal activity against all tested species,80 to 100,80 to 100,80 to 100,80 to 100,80 to 100,80 to 100,pest or weed control at 200 g/ha ([1]; first trial (Table 1)): 20 to 80%; pest or weed control at 1000 g/ha ([1]; first trial (Table 1)): 20 to 80%; pest or weed control at 5000 g/ha ([1]; first trial (Table 1)): 20 to 80%; pest or weed control at 200 g/ha (Lolium perenne [2]; first trial (Table 1)): 80 to 100%; pest or weed control at 1000 g/ha (Lolium perenne [2]; first trial (Table 1)): 80 to 100%; pest or weed control at 5000 g/ha (Lolium perenne [2]; first trial (Table 1)): 80 to 100%; pest or weed control at 200 g/ha ([4]; first trial (Table 1)): 80 to 100%; pest or weed control at 1000 g/ha ([4]; first trial (Table 1)): 80 to 100%; pest or weed control at 5000 g/ha ([4]; first trial (Table 1)): 80 to 100%; pest or weed control at 200 g/ha (Lolium perenne [5]; first trial (Table 1)): 80 to 100%; pest or weed control at 1000 g/ha (Lolium perenne [5]; first trial (Table 1)): 80 to 100%; pest or weed control at 5000 g/ha (Lolium perenne [5]; first trial (Table 1)): 80 to 100%
C#CCN1C(=O)C2(CC2)Oc2cc(F)c(N3C(=O)c4ccc(C)cc4C3=O)cc21 [Example 8],80 to 100,80 to 100,80 to 100,20 to 80,80 to 100,80 to 100,excellent herbicidal activity against all tested species,80 to 100,80 to 100,80 to 100,20 to 80,80 to 100,80 to 100,
COC(=O)C(C)N1C(=O)C2(CC2)Oc2cc(F)c(N3C(=O)C4=C(CCCC4)C3=O)cc21 (centres unmarked) [Example 15],80 to 100,80 to 100,80 to 100,20 to 80,80 to 100,80 to 100,excellent herbicidal activity against all tested species,80 to 100,80 to 100,80 to 100,20 to 80,80 to 100,80 to 100,
CCOC(=O)C(C)N1C(=O)C2(CC2)Oc2cc(F)c(N3C(=O)C4=C(CCCC4)C3=O)cc21 (centres unmarked) [Example 18],80 to 100,80 to 100,80 to 100,20 to 80,80 to 100,80 to 100,excellent herbicidal activity against all tested species,80 to 100,80 to 100,80 to 100,80 to 100,80 to 100,80 to 100,
CCOC(=O)C(C)N1C(=O)C2(CC2)Oc2cc(F)c(N3C(=O)c4ccc(F)cc4C3=O)cc21 (centres unmarked) [Example 19],80 to 100,80 to 100,80 to 100,20 to 80,80 to 100,80 to 100,excellent herbicidal activity against all tested species,80 to 100,80 to 100,80 to 100,20 to 80,80 to 100,80 to 100,
"C#CCN1C(=O)C2(CCC2)Oc2cc(F)c(-n3c(=O)cc(C(F)(F)F)[nH]c3=O)cc21 [Example 33, 3-(7-Fluoro-3-oxo-4-(prop-2-yn-1-yl)-3,4-dihydrospiro[benzo[b][1,4]oxazine-2,1′-cyclobutan]-6-yl)-6-(trifluoromethyl)pyrimidine-2,4(1H,3H)-dione]",< 20,< 20,20 to 80,< 20,< 20,< 20,,< 20,20 to 80,20 to 80,< 20,< 20,< 20,
CC(C(=O)O)N1C(=O)C2(CC2)Oc2cc(F)c(N3C(=O)c4ccc(F)cc4C3=O)cc21 (centres unmarked) [Example 35],80 to 100,80 to 100,80 to 100,< 20,20 to 80,20 to 80,,< 20,20 to 80,20 to 80,< 20,20 to 80,20 to 80,
"O=C1c2ccc(F)cc2C(=O)N1c1cc2c(cc1F)OC1(CC1)C(=O)N2CC1CO1 (centres unmarked) [Example 36, 5-Fluoro-2-(7-fluoro-4-(oxiran-2-ylmethyl)-3-oxo-3,4-dihydrospiro[benzo[b][1,4]oxazine-2,1′-cyclopropan]-6-yl)isoindoline-1,3-dione]",80 to 100,80 to 100,80 to 100,< 20,20 to 80,20 to 80,,< 20,20 to 80,80 to 100,< 20,20 to 80,20 to 80,
C#CCN1C(=O)C2(CC2)Oc2cc(F)c(-n3c(=O)cc(C(F)(F)F)n(CC#C)c3=O)cc21 [Example 41],80 to 100,80 to 100,80 to 100,< 20,20 to 80,80 to 100,,80 to 100,80 to 100,80 to 100,80 to 100,80 to 100,80 to 100,
C#CCN1C(=O)C2(CC2)Oc2cc(F)c(-n3c(=O)cc(C(F)(F)F)n(CC(=O)OC)c3=O)cc21 [Example 42],80 to 100,80 to 100,80 to 100,20 to 80,20 to 80,80 to 100,,20 to 80,80 to 100,80 to 100,< 20,20 to 80,20 to 80,
